Test results published in patent US20080009418A1, “Selective Inhibitors” (Alchemia LTD., priority 2004, published 2008).

Experiments:
[1] = molecular target: T1, Human melanin-concentrating hormone (MCH1) (Homo sapiens, UniProt Q99705); assay: Radioligand binding, human melanin-concentrating hormone MCH1 membranes, FlashPlate, [125I]-S36057; conditions: compound at 10 μM
T1 construct: purchased Perkin Elmer Biosignal
In short: (§1)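 Cloned human receptor membranes were coated onto FlashPlate wells and incubated with radioligand and compound (added from a 0.5 mM DMSO daughter plate) for 1 hour at room temperature in the dark. Scintillation counting gave percent inhibition, with DMSO defining total and reference ligand defining non-specific binding.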

Human Melanocortin (MC4) = molecular target: T2, Human Melanocortin (MC4) (Homo sapiens, UniProt P32245); assay: Radioligand binding, human melanocortin MC4 membranes, FlashPlate, [125I]-NDP-αMSH; conditions: compound at 10 μM, [125I]-NDP-αMSH
T2 construct: purchased Perkin Elmer Biosignal
T2 sequence (P32245 whole entry): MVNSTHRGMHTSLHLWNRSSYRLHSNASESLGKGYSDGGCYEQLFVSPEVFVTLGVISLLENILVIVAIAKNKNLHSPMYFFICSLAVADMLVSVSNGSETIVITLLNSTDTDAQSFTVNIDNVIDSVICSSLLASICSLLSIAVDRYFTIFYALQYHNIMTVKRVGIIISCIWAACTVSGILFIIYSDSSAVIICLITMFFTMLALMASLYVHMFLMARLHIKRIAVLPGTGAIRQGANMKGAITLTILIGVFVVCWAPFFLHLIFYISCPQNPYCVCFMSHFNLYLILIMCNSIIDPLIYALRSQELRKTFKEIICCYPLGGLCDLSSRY
In short: as §1

Human κ-Opioid (KOP) = molecular target: T3, Human κ-Opioid (KOP) (Homo sapiens, UniProt P41145); assay: Radioligand binding, human κ-opioid (KOP) membranes, filtration, [3H]-Diprenorphine; conditions: compound at 10 μM, [3H]-Diprenorphine
T3 construct: purchased Perkin Elmer Biosignal
T3 sequence (P41145 whole entry): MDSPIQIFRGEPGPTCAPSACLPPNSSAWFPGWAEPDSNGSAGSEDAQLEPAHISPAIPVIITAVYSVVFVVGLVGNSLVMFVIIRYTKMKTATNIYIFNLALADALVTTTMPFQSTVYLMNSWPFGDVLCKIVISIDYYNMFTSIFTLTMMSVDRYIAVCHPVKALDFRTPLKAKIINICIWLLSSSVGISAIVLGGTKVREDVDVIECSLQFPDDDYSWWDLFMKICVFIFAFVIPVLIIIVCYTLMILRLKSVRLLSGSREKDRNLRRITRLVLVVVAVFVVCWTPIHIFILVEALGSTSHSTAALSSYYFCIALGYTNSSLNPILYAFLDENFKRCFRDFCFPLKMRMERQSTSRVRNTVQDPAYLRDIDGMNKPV
In short: (§2)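 Percent inhibition of radioligand binding measured on recombinant human membranes: NK1 with [125I]-Substance P, KOP with [3H]-Diprenorphine. Incubation 1 h at room temperature, then harvest onto 0.3% PEI-soaked filters, cold Tris-HCl pH 7.4 washes and scintillation counting; non-specific binding from reference ligand wells.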

Human μ-opioid (MOP) = molecular target: T4, Human μ-opioid (MOP) (Homo sapiens, UniProt P35372); assay: Radioligand binding, human μ-opioid (MOP) membranes, FlashPlate, [3H]-Naloxone; conditions: compound at 10 μM, [3H]-Naloxone
T4 construct: purchased Perkin Elmer Biosignal
T4 sequence (P35372 whole entry): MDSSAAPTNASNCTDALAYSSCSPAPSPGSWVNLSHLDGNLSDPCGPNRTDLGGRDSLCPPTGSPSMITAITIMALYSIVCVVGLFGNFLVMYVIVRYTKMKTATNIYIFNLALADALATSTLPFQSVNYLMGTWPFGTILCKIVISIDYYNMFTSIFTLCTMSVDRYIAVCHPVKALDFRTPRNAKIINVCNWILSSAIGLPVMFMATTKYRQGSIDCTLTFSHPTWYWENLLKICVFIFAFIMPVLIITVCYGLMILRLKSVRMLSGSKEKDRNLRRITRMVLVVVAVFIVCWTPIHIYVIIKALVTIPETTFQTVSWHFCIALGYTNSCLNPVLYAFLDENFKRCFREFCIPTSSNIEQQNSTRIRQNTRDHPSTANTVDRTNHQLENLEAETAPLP
In short: as §1

Human neurokinin (NK1) = molecular target: T5, Human neurokinin (NK1) (Homo sapiens, UniProt P25103); assay: Radioligand binding, human neurokinin NK1 membranes, filtration, [125I]-Substance P; conditions: compound at 10 μM, [125I]-Substance P
T5 construct: purchased Perkin Elmer Biosignal
T5 sequence (P25103 whole entry): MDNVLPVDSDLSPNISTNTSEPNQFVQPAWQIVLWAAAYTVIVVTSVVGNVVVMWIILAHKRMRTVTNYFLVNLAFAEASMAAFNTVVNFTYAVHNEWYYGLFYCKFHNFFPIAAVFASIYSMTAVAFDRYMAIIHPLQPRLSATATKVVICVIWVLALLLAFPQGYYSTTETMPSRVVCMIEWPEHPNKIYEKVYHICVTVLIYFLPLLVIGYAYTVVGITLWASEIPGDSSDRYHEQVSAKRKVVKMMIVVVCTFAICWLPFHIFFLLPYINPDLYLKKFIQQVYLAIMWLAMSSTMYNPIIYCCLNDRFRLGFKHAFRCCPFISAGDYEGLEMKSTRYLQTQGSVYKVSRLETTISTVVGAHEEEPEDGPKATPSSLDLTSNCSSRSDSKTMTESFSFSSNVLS
In short: as §2

Human Melanocortin (MC3) = molecular target: T6, Human Melanocortin (MC3) (Homo sapiens, UniProt P41968); assay: Radioligand binding, human melanocortin MC3 membranes, FlashPlate, [125I]-NDP-αMSH; conditions: compound at 10 μM, [125I]-NDP-αMSH
T6 construct: purchased Perkin Elmer Biosignal
T6 sequence (P41968 whole entry): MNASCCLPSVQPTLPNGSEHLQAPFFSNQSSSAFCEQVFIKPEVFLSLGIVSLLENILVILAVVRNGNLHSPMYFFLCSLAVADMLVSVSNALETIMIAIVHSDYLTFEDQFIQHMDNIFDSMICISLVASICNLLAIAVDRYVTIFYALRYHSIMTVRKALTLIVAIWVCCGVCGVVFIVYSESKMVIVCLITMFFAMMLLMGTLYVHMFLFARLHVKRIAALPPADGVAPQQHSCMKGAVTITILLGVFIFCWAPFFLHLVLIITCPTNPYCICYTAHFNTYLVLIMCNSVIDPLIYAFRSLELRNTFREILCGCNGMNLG
In short: as §1

Mouse urotensin (mUR2) = molecular target: T7, Mouse urotensin (mUR2) (Mus musculus, UniProt Q8VIH9); assay: Radioligand binding, mouse urotensin mUR2 membranes, FlashPlate, [125I]-Urotensin II; conditions: compound at 10 μM, [125I]-Urotensin II
T7 construct: purchased Perkin Elmer Biosignal
T7 sequence (Q8VIH9 1-385): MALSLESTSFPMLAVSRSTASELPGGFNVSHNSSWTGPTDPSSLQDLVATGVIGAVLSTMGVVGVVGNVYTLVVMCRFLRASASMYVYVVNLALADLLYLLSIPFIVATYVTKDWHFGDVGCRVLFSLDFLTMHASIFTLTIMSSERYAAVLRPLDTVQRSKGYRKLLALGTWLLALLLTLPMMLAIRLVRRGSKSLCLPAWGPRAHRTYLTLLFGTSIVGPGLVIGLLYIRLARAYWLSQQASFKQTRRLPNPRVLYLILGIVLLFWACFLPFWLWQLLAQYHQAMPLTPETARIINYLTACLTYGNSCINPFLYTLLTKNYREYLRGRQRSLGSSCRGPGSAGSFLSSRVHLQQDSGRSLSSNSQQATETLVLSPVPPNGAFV
In short: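 Cloned mouse urotensin (mUR2) receptor membranes from Perkin Elmer Biosignal were immobilized in FlashPlate microplates using a proprietary coating. Each well got 19.5 μl buffer, then 0.5 μl of DMSO, reference ligand, or compound. Adding 5 μl of [125I]-Urotensin II, diluted to 5× final concentration in binding buffer, started binding. Plates were sealed with TopSeal-A and incubated 1 hour at room temperature in the dark. Wells were counted for 30 seconds each on a TopCount after a 60-second delay, and percentage inhibition was calculated.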

Human δ-opioid (DOP) = molecular target: T8, Human δ-opioid (DOP) (Homo sapiens, UniProt P41143); assay: Radioligand binding, human δ-opioid (DOP) membranes, FlashPlate, [3H]-Bremazocine; conditions: compound at 10 μM, [3H]-Bremazocine
T8 construct: purchased Perkin Elmer Biosignal
T8 sequence (P41143 whole entry): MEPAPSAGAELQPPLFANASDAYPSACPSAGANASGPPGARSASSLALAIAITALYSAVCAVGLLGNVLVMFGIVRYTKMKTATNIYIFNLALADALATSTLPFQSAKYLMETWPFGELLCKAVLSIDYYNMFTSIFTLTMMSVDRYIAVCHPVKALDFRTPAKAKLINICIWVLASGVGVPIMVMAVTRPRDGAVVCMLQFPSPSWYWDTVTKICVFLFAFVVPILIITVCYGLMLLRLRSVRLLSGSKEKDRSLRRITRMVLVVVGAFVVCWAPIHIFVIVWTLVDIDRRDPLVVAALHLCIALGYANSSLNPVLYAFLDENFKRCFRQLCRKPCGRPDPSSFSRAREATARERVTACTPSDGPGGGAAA
In short: as §1

Human opioid (ORL1) = molecular target: T9, Human opioid (ORL1) (Homo sapiens, UniProt P41146); assay: Radioligand binding, human opioid ORL1 membranes, FlashPlate, [125I]-Nociceptin; conditions: compound at 10 μM, [125I]-Nociceptin
T9 construct: purchased Perkin Elmer Biosignal
T9 sequence (P41146 whole entry): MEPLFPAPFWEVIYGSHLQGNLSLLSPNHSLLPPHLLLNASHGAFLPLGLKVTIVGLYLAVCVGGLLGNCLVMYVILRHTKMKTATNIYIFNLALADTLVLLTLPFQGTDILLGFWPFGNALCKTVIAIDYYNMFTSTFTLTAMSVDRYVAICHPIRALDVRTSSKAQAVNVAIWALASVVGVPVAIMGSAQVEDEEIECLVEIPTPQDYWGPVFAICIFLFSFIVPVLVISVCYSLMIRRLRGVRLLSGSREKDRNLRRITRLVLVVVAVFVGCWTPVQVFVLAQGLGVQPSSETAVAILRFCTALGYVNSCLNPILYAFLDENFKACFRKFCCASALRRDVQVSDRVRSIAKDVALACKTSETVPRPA
In short: as §1

[2] = molecular target: T10, Human neuropeptide Y (NPY-Y1) (Homo sapiens, UniProt P25929); assay: Radioligand binding, human neuropeptide Y NPY-Y1 membranes, FlashPlate, [125I]-PYY; conditions: compound at 10 μM, [125I]-PYY
T10 construct: purchased Perkin Elmer Biosignal
T10 sequence (P25929 1-384): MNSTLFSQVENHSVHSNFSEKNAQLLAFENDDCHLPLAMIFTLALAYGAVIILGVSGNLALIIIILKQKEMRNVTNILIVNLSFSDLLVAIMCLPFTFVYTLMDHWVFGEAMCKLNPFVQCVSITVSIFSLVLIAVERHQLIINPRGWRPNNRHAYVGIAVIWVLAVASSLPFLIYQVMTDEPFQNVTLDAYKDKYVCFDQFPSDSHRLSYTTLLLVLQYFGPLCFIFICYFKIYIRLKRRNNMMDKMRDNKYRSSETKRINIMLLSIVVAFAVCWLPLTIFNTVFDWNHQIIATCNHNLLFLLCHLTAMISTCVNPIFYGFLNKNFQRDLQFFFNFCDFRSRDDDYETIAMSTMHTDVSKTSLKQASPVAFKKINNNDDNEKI
In short: as §1

Human melanocortin (MC5) = molecular target: T11, Human melanocortin (MC5) (Homo sapiens, UniProt P33032); assay: Radioligand binding, human melanocortin MC5 membranes, FlashPlate, [125I]-NDP-αMSH; conditions: compound at 10 μM, [125I]-NDP-αMSH
T11 construct: purchased Perkin Elmer Biosignal
T11 sequence (P33032 whole entry): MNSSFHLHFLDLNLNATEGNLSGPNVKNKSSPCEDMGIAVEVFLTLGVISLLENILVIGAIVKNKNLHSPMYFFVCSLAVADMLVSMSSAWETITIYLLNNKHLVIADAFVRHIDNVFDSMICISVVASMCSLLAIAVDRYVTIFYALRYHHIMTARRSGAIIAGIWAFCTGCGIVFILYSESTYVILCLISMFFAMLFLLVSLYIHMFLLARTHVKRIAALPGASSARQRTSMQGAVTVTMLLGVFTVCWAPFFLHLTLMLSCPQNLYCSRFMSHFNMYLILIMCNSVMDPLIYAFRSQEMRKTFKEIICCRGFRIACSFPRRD
In short: as §1

T1 sequence (Q99705 whole entry): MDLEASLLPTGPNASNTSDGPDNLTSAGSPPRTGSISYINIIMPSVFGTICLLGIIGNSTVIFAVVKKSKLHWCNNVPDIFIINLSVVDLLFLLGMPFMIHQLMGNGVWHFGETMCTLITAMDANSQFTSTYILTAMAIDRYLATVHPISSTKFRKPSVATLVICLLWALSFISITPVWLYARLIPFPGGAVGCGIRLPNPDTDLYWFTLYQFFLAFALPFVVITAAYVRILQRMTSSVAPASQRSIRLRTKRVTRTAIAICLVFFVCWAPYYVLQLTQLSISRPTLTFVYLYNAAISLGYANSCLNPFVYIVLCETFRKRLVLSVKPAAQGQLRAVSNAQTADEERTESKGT

CO[C@H]1[C@H](O)[C@@H](COCc2ccc(Cl)cc2)OC(OCc2cccc(O)c2)[C@@H]1NC(=O)CCCNC(=N)N (stereo partly drawn) [compound 170]
A6 radioligand binding, percentage inhibition ([1]; [125I]-S36057): − (“−” indicates less than 50% inhibition at 10 μM) | A4 radioligand binding, percentage inhibition (Human Melanocortin (MC4)): − (“−” indicates less than 50% inhibition at 10 μM) | A2 radioligand binding, percentage inhibition (Human κ-Opioid (KOP)): − (“−” indicates less than 50% inhibition at 10 μM) | A7 radioligand binding, percentage inhibition (Human μ-opioid (MOP)): + (“+” indicates greater than 50% inhibition at 10 μM) | A8 radioligand binding, percentage inhibition (Human neurokinin (NK1)): + (“+” indicates greater than 50% inhibition at 10 μM) | A3 radioligand binding, percentage inhibition (Human Melanocortin (MC3)): − (“−” indicates less than 50% inhibition at 10 μM) | A11 radioligand binding, percentage inhibition (Mouse urotensin (mUR2)): − (“−” indicates less than 50% inhibition at 10 μM) | A1 radioligand binding, percentage inhibition (Human δ-opioid (DOP)): − (“−” indicates less than 50% inhibition at 10 μM) | A10 radioligand binding, percentage inhibition (Human opioid (ORL1)): − (“−” indicates less than 50% inhibition at 10 μM) | A9 radioligand binding, percentage inhibition [2]: − (“−” indicates less than 50% inhibition at 10 μM) | A5 radioligand binding, percentage inhibition (Human melanocortin (MC5)): + (“+” indicates greater than 50% inhibition at 10 μM)

N=C(N)NCC(=O)N[C@H]1C(OCc2ccc(Cl)cc2)O[C@H](COCc2ccccc2)[C@@H](O)[C@@H]1OCc1ccc(-c2ccccc2)cc1 (stereo partly drawn) [compound 519]
A6: inhibition of radioligand binding, human melanin-concentrating hormone (MCH1) ([1]; [125I]-S36057, 10 µM): + (“+” indicates greater than 50% inhibition at 10 μM) | A4: inhibition of radioligand binding, human melanocortin (MC4) (Human Melanocortin (MC4); 10 µM): + (“+” indicates greater than 50% inhibition at 10 μM) | A2: inhibition of radioligand binding, human κ-opioid (KOP) (Human κ-Opioid (KOP)): − (“−” indicates less than 50% inhibition at 10 μM) | A7: inhibition of radioligand binding, human μ-opioid (MOP) (Human μ-opioid (MOP)): − (“−” indicates less than 50% inhibition at 10 μM) | A8: inhibition of radioligand binding, human neurokinin (NK1) (Human neurokinin (NK1)): + (“+” indicates greater than 50% inhibition at 10 μM) | A3: inhibition of radioligand binding, human melanocortin (MC3) (Human Melanocortin (MC3); 10 µM): + (“+” indicates greater than 50% inhibition at 10 μM) | A11: inhibition of radioligand binding, mouse urotensin (mUR2) (Mouse urotensin (mUR2)): − (“−” indicates less than 50% inhibition at 10 μM) | A1: inhibition of radioligand binding, human δ-opioid (DOP) (Human δ-opioid (DOP)): − (“−” indicates less than 50% inhibition at 10 μM) | A10: inhibition of radioligand binding, human opioid (ORL1) (Human opioid (ORL1)): − (“−” indicates less than 50% inhibition at 10 μM) | A9: inhibition of radioligand binding, human neuropeptide Y (NPY-Y1) [2]: − (“−” indicates less than 50% inhibition at 10 μM) | A5: inhibition of radioligand binding, human melanocortin (MC5) (Human melanocortin (MC5); 10 µM): + (“+” indicates greater than 50% inhibition at 10 μM)

CSC1OC(COCc2ccccc2)C(O)C(OCc2ccccc2)C1NC(=O)CCNC(=N)N (stereo not drawn) [compound 251]
A6: inhibition of radioligand binding ([1]; [125I]-S36057, FlashPlate): − (“−” indicates less than 50% inhibition at 10 μM) | A4: inhibition of radioligand binding (Human Melanocortin (MC4); FlashPlate): − (“−” indicates less than 50% inhibition at 10 μM) | A2: inhibition of radioligand binding (Human κ-Opioid (KOP); filtration): − (“−” indicates less than 50% inhibition at 10 μM) | A7: inhibition of radioligand binding (Human μ-opioid (MOP); FlashPlate): − (“−” indicates less than 50% inhibition at 10 μM) | A8: inhibition of radioligand binding (Human neurokinin (NK1); filtration): + (“+” indicates greater than 50% inhibition at 10 μM) | A3: inhibition of radioligand binding (Human Melanocortin (MC3); FlashPlate): − (“−” indicates less than 50% inhibition at 10 μM) | A11: inhibition of radioligand binding (Mouse urotensin (mUR2); FlashPlate): − (“−” indicates less than 50% inhibition at 10 μM) | A1: inhibition of radioligand binding (Human δ-opioid (DOP); FlashPlate): − (“−” indicates less than 50% inhibition at 10 μM) | A10: inhibition of radioligand binding (Human opioid (ORL1); FlashPlate): − (“−” indicates less than 50% inhibition at 10 μM) | A9: inhibition of radioligand binding ([2]; FlashPlate): − (“−” indicates less than 50% inhibition at 10 μM) | A5: inhibition of radioligand binding (Human melanocortin (MC5); FlashPlate): − (“−” indicates less than 50% inhibition at 10 μM)
